Data taken from article doi:10.1101/2025.07.11.664294 (bioRxiv, 2025).

Assays:
[1] = system: MMP-2; test: MMP-2 inhibition assay (Enzo MMP-2 drug discovery kit); assay type: biochemical, human; settings: NNGH positive control
Procedure: The MMP-2 inhibition assay was performed using the Enzo Life Sciences MMP-2 drug discovery kit. and the quenched fluorogenic substrate OmniMMP RED. Reference substrate was diluted to a final concentration of 5 μM, while the MMP-2 enzyme was diluted to 58 mU/μL, and the N-Isobutyl-N-(4-methoxyphenylsulfonyl)glycyl hydroxamic acid (NNGH) inhibitor was diluted to a concentration of 1/200 in assay buffer. […] The assay was performed using a black 96-well microplate. Fluorescence was measured at excitation/emission wavelengths of 545/576 nm, with a cutoff at 570 nm using Gen5 microplate reader (BioTeK, Shoreline, WA). Baseline fluorescence was recorded before adding NNGH inhibitor which was used as a positive control for MMP-2 inhibition. Reaction mixtures in the plate were incubated at 37 °C for 10 min, and fluorescence was measured at 10 min intervals for the first 30 min, then at 30 min intervals until 2 h had elapsed. Percentage of inhibition of MMP-2 activity by Ctx and its analogs was calculated as percent of control. Statistical analysis was performed using ANOVA with GraphPad Prism software, version 10.0.3.

[2] = system: recombinant MMP-2; test: Differential scanning fluorimetry (DSF); assay type: binding, human; settings: 1 μM MMP-2, 30 μM (Ctx) or 50 μM (P75 and P76) peptide, PBS pH 7.1, SYPRO-orange, average and SD of n ≥ 3
Procedure: The melting temperatures (Tm) of recombinant MMP-2 and its complexes with peptides were ascertained using BioRad CFX384 Touch real-time PCR (Hercules, CA, USA). The experiments were performed as previously described. The unfolding of the protein was detected using the fluorescent SYPRO-orange dye (Invitrogen, Carlsbad, CA, USA). MMP-2 and prospective ligand peptides were dissolved in 7.1 pH phosphate buffered saline (154 mM NaCl, 5.6 mM Na2PO4, 1.1mM KH2PO4), and the reaction mixture was made to a final concentration of 1 μM of protein, either 30 μM (Ctx) or 50 μM (P75 and P76) of peptide, and 1000x dilution of the SYPRO-Orange dye stock from the manufacturer. Excitation and emission filters of the dye were set at 450–490 nm and 560–580 nm, respectively. The temperature for the reaction was held at 25 °C for 5 min, and then a gradient of 25 °C to 95 °C was applied at a rate of 0.3 °C/min, and the fluorescence was recorded. To determine Tm of the protein, the first derivatives of melting curves were plotted using GraphPad Prism software, version 10.0.3.

[3] = target: T1, Neuropilin-1 (NRP-1) (Homo sapiens, UniProt O14786); test: Surface plasmon resonance (SPR); assay type: binding; settings: NRP-1 immobilized on NTA chip, steady-state affinity model, peptides 500 μM to 3.90 μM, n=3, 4 replicates, read-out: dissociation constant (KD) for NRP-1
T1 construct: containing amino acid residues Phe22-Lys644, with a poly-histidine tag at the C-terminus; purchased ACROBiosystems NR1-H5228
T1 sequence (O14786 22-644 isoform O14786-2): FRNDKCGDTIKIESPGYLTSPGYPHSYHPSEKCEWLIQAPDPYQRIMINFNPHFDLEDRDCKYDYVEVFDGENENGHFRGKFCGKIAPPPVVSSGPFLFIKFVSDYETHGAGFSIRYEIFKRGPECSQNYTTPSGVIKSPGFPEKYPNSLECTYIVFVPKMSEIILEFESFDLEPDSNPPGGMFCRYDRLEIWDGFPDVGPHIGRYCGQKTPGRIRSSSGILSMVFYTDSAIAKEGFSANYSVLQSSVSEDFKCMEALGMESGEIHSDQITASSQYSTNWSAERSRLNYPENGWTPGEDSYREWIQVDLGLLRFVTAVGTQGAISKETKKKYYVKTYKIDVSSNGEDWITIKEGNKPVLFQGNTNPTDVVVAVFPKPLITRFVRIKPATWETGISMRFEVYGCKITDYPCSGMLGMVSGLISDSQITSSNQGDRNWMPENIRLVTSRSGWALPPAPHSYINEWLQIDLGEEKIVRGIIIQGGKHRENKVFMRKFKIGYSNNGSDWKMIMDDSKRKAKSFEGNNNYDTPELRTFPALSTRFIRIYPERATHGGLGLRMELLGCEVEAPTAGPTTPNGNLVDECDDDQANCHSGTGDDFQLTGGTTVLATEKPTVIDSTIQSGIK
Procedure: (§1) Surface plasmon resonance (SPR) reagents, plates, and the NTA chip were purchased from GE Healthcare Life Sciences, now Cytiva (Marlborough, MA, USA). Measurements were performed using the Biacore 8000 SPR System (Marlborough, MA. USA). The running buffer used for protein immobilization and peptide binding consisted of 20 mM Tris, 150 mM NaCl, […] and 0.0005% Tween-20, adjusted to pH 7.4. MMP-2 and NRP-1 were immobilized onto the NTA chip at 15 nM and 25 nM concentration, respectively. Peptides were injected over the immobilized proteins using two-fold serial dilutions from 500 μM to 3.90 μM. Three experiments with four replicates of each were performed. The SPR response curves generated from the Biacore Insight Evaluation Software were fitted to a steady-state affinity model to obtain an equilibrium dissociation constant (KD) for each peptide — protein interaction.

[4] = system: U87MG glioblastoma cells; test: Wound-healing scratch assay; assay type: cell-based, human; settings: 50 μM peptide, 24 h, mitomycin C 3 μg/ml; wound closure by ImageJ
Procedure: The U87MG GBM cell line (U-87 MG, ATCC® HTB-14) was cultured in Dulbecco’s Modified Eagle Medium (DMEM) and appropriate growth factors at 37°C in a humidified 5% CO2 atmosphere. Cells were seeded at 40,000 cells per well in 96-well plates and allowed to adhere overnight. Then, mitomycin C (3 μg/ml) was added to inhibit further cell replication, and 50 μM Ctx and its analogs were added. Untreated wells served as a control. Wounds were created by manually scratching the cell monolayer with a 200 μL multi-channel pipette tip, and plates were analyzed at 0 h and 24 h time points using the MetaXpress image acquisition software (Molecular Devices, San Jose, CA). The ImageJ Ver. 1.54f program (NIH (National Institutes of Health) was used for image analysis. Wound closure was quantified using the Wound_Healing_Size_tool_plugin., analyzing the percentage of wound area covered by migrating cells. To determine significance, statistical analysis was performed using appropriate methods (t-test or ANOVA) using GraphPad Prism software, version 10.0.3.

[5] = system: MMP-2; test: Surface plasmon resonance (SPR); assay type: binding, human; settings: MMP-2 immobilized on NTA chip; peptides 500 μM to 3.90 μM; pH 7.4
Procedure: as §1

[6] = peptides at 1 μM, 50 μM and 100 μM, quenched fluorogenic substrate, one-way ANOVA

| Substance | inhibition of MMP-2 enzymatic activity [1, 6] | Change in melting temperature ΔTm ± SD [2] | Kd [3] | inhibition of U-87MG cell migration [4] | inhibition of MMP-2 enzymatic activity ([1]; Ctx at 1 μM, 5 μM, 10 μM, 15 μM and 20 μM, quenched fluorogenic substrate OmniMMP RED) | binding to MMP-2 by SPR [5] |
| --- | --- | --- | --- | --- | --- | --- |
| Ac-[Cys^26,Ser^28,33,Cyc(26,35)]Ctx(24-36)-NH2 [Peptide P76] | not statistically significant | 0.63 ± 0.36 °C | – | – | – | – |
| Ac-[Ser^35,Cyc(28,33)]Ctx(24-36)-NH2 [Peptide P75] | not statistically significant | 0.76 ± 1.56 °C | 330 ± 146 µM | Inhibition of U-87MG cell migration | – | – |
| Chlorotoxin [Ctx, reference compound] | not statistically significant | – | – | – | did not inhibit MMP-2 activity | did not bind |
| Ac-[Cyc(28,33)]Ctx(27-34)-NH2 [Peptide P78] | not statistically significant | – | – | about 30% | – | – |
